Where “and” joins values, the source holds several entries; their conditions need not be identical. Equal values may be shown once.
System: BDF1 mice, Adenocarcinoma 755 s.c., tumor weight T/C
Experiment: NCI In Vivo Anticancer Drug Screen. Data for tumor model Adenocarcinoma 755 (subcutaneous) in B6D2F1 (BDF1) mice
Settings: endpoint: mean tumor weight, higher = larger tumour
Outline: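 Compound activity was tested in mice carrying transplanted tumors. Survival or tumor size was measured, and each value is the treated-group measurement divided by that of the vehicle-treated control group (T/C).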

[1] = dose: 12.0 mg/kg/injection, schedule: Q01DX011 (ip), vehicle: carboxymethylcellulose (CMC)
[2] = dose: 50.0 mg/kg/injection, schedule: Q01DX011 (ip), vehicle: carboxymethylcellulose (CMC)
[3] = dose: 100.0 mg/kg/injection, schedule: Q01DX011 (ip), vehicle: carboxymethylcellulose (CMC)
[4] = dose: 25.0 mg/kg/injection, schedule: Q01DX011 (ip), vehicle: carboxymethylcellulose (CMC)
[5] = dose: 50.0 mg/kg/injection, schedule: Q01DX011 (ip), vehicle: methylcellulose (MC)
[6] = dose: 100.0 mg/kg/injection, schedule: Q01DX011 (ip), vehicle: methylcellulose (MC)
[7] = dose: 15.0 mg/kg/injection, schedule: Q01DX011 (ip), vehicle: methylcellulose (MC)
[8] = dose: 31.0 mg/kg/injection, schedule: Q01DX011 (ip), vehicle: methylcellulose (MC)
[9] = dose: 62.0 mg/kg/injection, schedule: Q01DX011 (ip), vehicle: methylcellulose (MC)
[10] = dose: 125.0 mg/kg/injection, schedule: Q01DX011 (ip), vehicle: methylcellulose (MC)
[11] = dose: 250.0 mg/kg/injection, schedule: Q01DX011 (ip), vehicle: methylcellulose (MC)

For `Cc1ccc(/C=N/Nc2nc3c(c(=O)n(C)c(=O)n3C)n2C)cc1`, the T/C (dose: 25.0 mg/kg/injection, schedule: Q01DX011 (ip), vehicle: methylcellulose (MC)) was 77 % of control, the T/C (dose: 75.0 mg/kg/injection, schedule: Q01DX011 (ip), vehicle: methylcellulose (MC)) was 60 % of control and the T/C (dose: 225.0 mg/kg/injection, schedule: Q01DX011 (ip), vehicle: methylcellulose (MC)) was 39 % of control.
In the case of `CC(C)=NOC(N)=O`, the T/C (dose: 100.0 mg/kg/injection, schedule: Q01DX011 (ip), vehicle: water) is reported as 122 % of control and the T/C (dose: 200.0 mg/kg/injection, schedule: Q01DX011 (ip), vehicle: water) is reported as 106 % of control.
With `CCCCCCCCCCCC[N+](C)(C)c1ncnc2nc[nH]c12` the T/C [1] was 103 % of control, the T/C (dose: 24.0 mg/kg/injection, schedule: Q01DX011 (ip), vehicle: carboxymethylcellulose (CMC)) was 55 % of control and the T/C (dose: 48.0 mg/kg/injection, schedule: Q01DX011 (ip), vehicle: carboxymethylcellulose (CMC)) was 13 % of control.
In the case of `O=C(OCC1OC(n2cnc3c(=S)nc[nH]c32)C(OC(=O)c2ccccc2)C1OC(=O)c1ccccc1)c1ccccc1` (configuration not stated), the T/C (dose: 8.0 mg/kg/injection, schedule: Q01DX011 (ip), vehicle: carboxymethylcellulose (CMC)) is reported as 98 % of control, the T/C (dose: 15.0 mg/kg/injection, schedule: Q01DX011 (ip), vehicle: carboxymethylcellulose (CMC)) is reported as 91 % of control and the T/C (dose: 31.0 mg/kg/injection, schedule: Q01DX011 (ip), vehicle: carboxymethylcellulose (CMC)) is reported as 99 % of control. The T/C (dose: 32.0 mg/kg/injection, schedule: Q01DX011 (ip), vehicle: carboxymethylcellulose (CMC)) was 53 % of control, the T/C [2] was 53 % of control and the T/C [3] was 7 % of control. The T/C (dose: 125.0 mg/kg/injection, schedule: Q01DX011 (ip), vehicle: carboxymethylcellulose (CMC)) was 2 % of control and 6 % of control and 12 % of control and the T/C (dose: 250.0 mg/kg/injection, schedule: Q01DX011 (ip), vehicle: carboxymethylcellulose (CMC)) was 1 % of control.
`C[C@]12CC[C@@H]3c4ccc(OC(=O)c5ccccc5)cc4CC[C@H]3[C@@H]1CC[C@@H]2O` was tested, and the T/C (dose: 77.31 mg/kg/injection, schedule: Q01DX011 (sc), vehicle: steriod suspending solution) was 81 % of control, the T/C (dose: 125.0 mg/kg/injection, schedule: Q01DX011 (sc), vehicle: steriod suspending solution) was 66 % of control and the T/C (dose: 154.63 mg/kg/injection, schedule: Q01DX011 (sc), vehicle: steriod suspending solution) was 94 % of control. The T/C (dose: 250.0 mg/kg/injection, schedule: Q01DX011 (sc), vehicle: steriod suspending solution) was 87 % of control, the T/C (dose: 309.25 mg/kg/injection, schedule: Q01DX011 (sc), vehicle: steriod suspending solution) was 72 % of control and the T/C (dose: 500.0 mg/kg/injection, schedule: Q01DX011 (sc), vehicle: steriod suspending solution) was 84 % of control. The T/C (dose: 618.5 mg/kg/injection, schedule: Q01DX011 (sc), vehicle: steriod suspending solution) was 91 % of control and the T/C (dose: 1000.0 mg/kg/injection, schedule: Q01DX011 (sc), vehicle: steriod suspending solution) was 54 % of control.
In the case of `CC(=O)OCC1OC(n2cnc3c(N)ncnc32)C(OC(C)=O)C1OC(C)=O` (configuration not stated), the T/C (dose: 30.0 mg/kg/injection, schedule: Q01DX011 (ip), vehicle: carboxymethylcellulose (CMC)) is reported as 150 % of control, the T/C (dose: 120.0 mg/kg/injection, schedule: Q01DX011 (ip), vehicle: carboxymethylcellulose (CMC)) is reported as 113 % of control and the T/C (dose: 240.0 mg/kg/injection, schedule: Q01DX011 (ip), vehicle: carboxymethylcellulose (CMC)) is reported as 103 % of control.
`Nc1nc(=S)c2ncn(C3OC(COC(=O)c4ccc([N+](=O)[O-])cc4)C(OC(=O)c4ccc([N+](=O)[O-])cc4)C3OC(=O)c3ccc([N+](=O)[O-])cc3)c2[nH]1` (configuration not stated) was tested, and the T/C (dose: 12.5 mg/kg/injection, schedule: Q01DX011 (ip), vehicle: carboxymethylcellulose (CMC)) was 34 % of control and the T/C [4] was 20 % of control.
With `CC(=O)Nc1c(Cl)c(Cl)c2c(c1Cl)C(=O)c1cc(Cl)ccc1-2` the T/C [5] was 57 % of control, the T/C (dose: 50.0 mg/kg/injection, schedule: Q01DX011 (ip), vehicle: other) was 100 % of control and 112 % of control and the T/C [6] was 65 % of control. The T/C (dose: 100.0 mg/kg/injection, schedule: Q01DX011 (ip), vehicle: other) was 65 % of control, the T/C (dose: 400.0 mg/kg/injection, schedule: Q01DX011 (ip), vehicle: other) was 41 % of control and 64 % of control and 66 % of control and the T/C (dose: 800.0 mg/kg/injection, schedule: Q01DX011 (ip), vehicle: other) was 59 % of control.
With `N#CCCNC(=O)Nc1ccccc1` the T/C [7] was 63 % of control, the T/C [8] was 74 % of control and the T/C [9] was 58 % of control. The T/C [10] was 101 % of control and the T/C [11] was 93 % of control.
For `CCCCNc1nc(SCc2ccc(Cl)cc2Cl)ncc1C`, the T/C [7] was 78 % of control, the T/C [8] was 91 % of control and the T/C [9] was 84 % of control. The T/C [10] was 72 % of control and the T/C [11] was 60 % of control.
For `O=C(N/N=C\c1ccc(Br)cc1)c1ccncc1`, the T/C (dose: 30.0 mg/kg/injection, schedule: Q01DX011 (ip), vehicle: methylcellulose (MC)) was 52 % of control, the T/C (dose: 60.0 mg/kg/injection, schedule: Q01DX011 (ip), vehicle: methylcellulose (MC)) was 52 % of control and the T/C (dose: 120.0 mg/kg/injection, schedule: Q01DX011 (ip), vehicle: methylcellulose (MC)) was 62 % of control. The T/C (dose: 240.0 mg/kg/injection, schedule: Q01DX011 (ip), vehicle: methylcellulose (MC)) was 37 % of control and the T/C (dose: 500.0 mg/kg/injection, schedule: Q01DX011 (ip), vehicle: methylcellulose (MC)) was 64 % of control.
With `Nc1nc(Oc2ccc(Cl)cc2)c2n[nH]nc2n1` the T/C (dose: 200.0 mg/kg/injection, schedule: Q01DX011 (ip), vehicle: carboxymethylcellulose (CMC)) was 66 % of control.
In the case of `O=C(CCBr)NCCNC(=O)CCBr`, the T/C [5] is reported as 15 % of control and the T/C [6] is reported as 3 % of control.
For `S=c1nc[nH]c2c1ncn2C1CCCO1` (configuration not stated), the T/C (dose: 0.5 mg/kg/injection, schedule: Q01DX011 (ip), vehicle: carboxymethylcellulose (CMC)) was 26 % of control, the T/C (dose: 1.0 mg/kg/injection, schedule: Q01DX011 (ip), vehicle: carboxymethylcellulose (CMC)) was 75 % of control and the T/C (dose: 1.5 mg/kg/injection, schedule: Q01DX011 (ip), vehicle: carboxymethylcellulose (CMC)) was 47 % of control. For the same molecule, the T/C (dose: 6.0 mg/kg/injection, schedule: Q01DX011 (ip), vehicle: carboxymethylcellulose (CMC)) was 11 % of control, the T/C [1] was 6 % of control and the T/C [4] was 4 % of control. For the same molecule, the T/C [2] was 6 % of control and the T/C [3] was 6 % of control.
`O=C(O)C(CS(=O)(=O)O)Nc1ncnc2nc[nH]c12` (configuration not stated) was tested, and the T/C (dose: 3.1 mg/kg/injection, schedule: Q01DX011 (ip), vehicle: saline) was 65 % of control, the T/C (dose: 6.2 mg/kg/injection, schedule: Q01DX011 (ip), vehicle: saline) was 40 % of control and the T/C (dose: 12.5 mg/kg/injection, schedule: Q01DX011 (ip), vehicle: saline) was 40 % of control and 43 % of control. For the same molecule, the T/C (dose: 18.75 mg/kg/injection, schedule: Q01DX011 (ip), vehicle: saline) was 38 % of control, the T/C (dose: 25.0 mg/kg/injection, schedule: Q01DX011 (ip), vehicle: saline) was 10 % of control and the T/C (dose: 28.12 mg/kg/injection, schedule: Q01DX011 (ip), vehicle: saline) was 12 % of control. The T/C (dose: 45.0 mg/kg/injection, schedule: Q01DX011 (ip), vehicle: saline) was 4 % of control, the T/C (dose: 75.0 mg/kg/injection, schedule: Q01DX011 (ip), vehicle: saline) was 7 % of control and the T/C (dose: 225.0 mg/kg/injection, schedule: Q01DX011 (ip), vehicle: saline) was 7 % of control.
With `Nc1nc(SCc2ccccc2)c2ncn(C3CCCC3)c2n1` the T/C (dose: 4.6 mg/kg/injection, schedule: Q01DX011 (ip), vehicle: carboxymethylcellulose (CMC)) was 79 % of control, the T/C (dose: 9.3 mg/kg/injection, schedule: Q01DX011 (ip), vehicle: carboxymethylcellulose (CMC)) was 70 % of control and the T/C (dose: 18.7 mg/kg/injection, schedule: Q01DX011 (ip), vehicle: carboxymethylcellulose (CMC)) was 69 % of control. For the same molecule, the T/C (dose: 37.5 mg/kg/injection, schedule: Q01DX011 (ip), vehicle: carboxymethylcellulose (CMC)) was 24 % of control, the T/C (dose: 75.0 mg/kg/injection, schedule: Q01DX011 (ip), vehicle: carboxymethylcellulose (CMC)) was 11 % of control and the T/C (dose: 150.0 mg/kg/injection, schedule: Q01DX011 (ip), vehicle: carboxymethylcellulose (CMC)) was 2 % of control. For the same molecule, the T/C (dose: 300.0 mg/kg/injection, schedule: Q01DX011 (ip), vehicle: carboxymethylcellulose (CMC)) was 1 % of control and the T/C (dose: 375.0 mg/kg/injection, schedule: Q01DX011 (ip), vehicle: carboxymethylcellulose (CMC)) was 33 % of control.
`C[N+](C)(C)c1ncnc2c1ncn2C1OC(CO)C(O)C1O` (configuration not stated) was tested, and the T/C (dose: 30.0 mg/kg/injection, schedule: Q01DX011 (ip), vehicle: saline) was 48 % of control and 61 % of control, the T/C (dose: 60.0 mg/kg/injection, schedule: Q01DX011 (ip), vehicle: saline) was 109 % of control and the T/C (dose: 120.0 mg/kg/injection, schedule: Q01DX011 (ip), vehicle: saline) was 28 % of control. The T/C (dose: 240.0 mg/kg/injection, schedule: Q01DX011 (ip), vehicle: saline) was 9 % of control.
